Data: ChEMBL document CHEMBL3885881, “DrugMatrix”

Species: Rattus norvegicus
Assay: DrugMatrix - Regimen: Daily Repeat
Assay type: toxicity, organism-based, Sprague-Dawley
Parameters: regimen Daily Repeat, gender Male, age 6-8 weeks
Conditions: in vivo, po, 10 mg/kg, route oral GAVAGE, dose level Low, vehicle .5 % CMC; for ABSOLUTE BASOPHIL / ABSOLUTE EOSINOPHIL / ABSOLUTE LYMPHOCYTE / ABSOLUTE MONOCYTE / ABSOLUTE SEGMENTED NEUTROPHIL / BASOPHIL / EOSINOPHIL / ERYTHROCYTE COUNT / HEMATOCRIT / HEMOGLOBIN / LEUKOCYTE COUNT / LYMPHOCYTE / MEAN CORPUSCULAR HEMOGLOBIN / MEAN CORPUSCULAR HEMOGLOBIN CONCENTRATION / MEAN CORPUSCULAR VOLUME / MONOCYTE / NEUTROPHIL / NUCLEATED RED BLOOD CELLS / PLATELET COUNT: tissue Blood; for ALANINE AMINOTRANSFERASE / ALBUMIN / ALKALINE PHOSPHATASE / ASPARTATE AMINOTRANSFERASE / BLOOD UREA NITROGEN / CARBON DIOXIDE / CHLORIDE / CHOLESTEROL / CREATINE PHOSPHOKINASE / CREATININE / GLUCOSE / LACTATE DEHYDROGENASE / LIPASE / PHOSPHORUS / POTASSIUM / SODIUM / TOTAL BILIRUBIN / TOTAL PROTEIN / URIC ACID: tissue Plasma

`Nc1nc(N)c2nc(-c3ccccc3)c(N)nc2n1` was tested, and the “ABSOLUTE BASOPHIL” value (72 h, time 3 day) was 0 CELLS/uL, the “ABSOLUTE EOSINOPHIL” value (72 h, time 3 day) was 222 CELLS/uL and the “ABSOLUTE LYMPHOCYTE” value (72 h, time 3 day) was 17071.33 CELLS/uL. The “ABSOLUTE MONOCYTE” value (72 h, time 3 day) was 553.33 CELLS/uL, the “ABSOLUTE SEGMENTED NEUTROPHIL” value (72 h, time 3 day) was 1620 CELLS/uL and the BASOPHIL (72 h, time 3 day) was 0%. For the same molecule, the EOSINOPHIL (72 h, time 3 day) was 1%, the “ERYTHROCYTE COUNT” value (72 h, time 3 day) was 5.9 x10E6/uL and the HEMATOCRIT (72 h, time 3 day) was 37.03%. For the same molecule, the HEMOGLOBIN (72 h, time 3 day) was 13.67 G/DL, the “LEUKOCYTE COUNT” value (72 h, time 3 day) was 19.47 x10E3/uL and the LYMPHOCYTE (72 h, time 3 day) was 87.33%. For the same molecule, the “MEAN CORPUSCULAR HEMOGLOBIN” value (72 h, time 3 day) was 23.17 pg, the “MEAN CORPUSCULAR HEMOGLOBIN CONCENTRATION” value (72 h, time 3 day) was 36.93 G/DL and the “MEAN CORPUSCULAR VOLUME” value (72 h, time 3 day) was 62.7 fL. For the same molecule, the MONOCYTE (72 h, time 3 day) was 3%, the NEUTROPHIL (72 h, time 3 day) was 8.67% and the “NUCLEATED RED BLOOD CELLS” value (72 h, time 3 day) was 0 /100WBC. For the same molecule, the “PLATELET COUNT” value (72 h, time 3 day) was 1434.33 x10E3/uL, the “ALANINE AMINOTRANSFERASE” value (72 h, time 3 day) was 48.33 u/L and the ALBUMIN (72 h, time 3 day) was 4.3 G/DL. For the same molecule, the “ALKALINE PHOSPHATASE” value (72 h, time 3 day) was 469.67 u/L, the “ASPARTATE AMINOTRANSFERASE” value (72 h, time 3 day) was 88 u/L and the “BLOOD UREA NITROGEN” value (72 h, time 3 day) was 15.33 mg/dL. For the same molecule, the “CARBON DIOXIDE” value (72 h, time 3 day) was 24 mmol/L, the CHLORIDE (72 h, time 3 day) was 104.67 MEQ/L and the CHOLESTEROL (72 h, time 3 day) was 67.33 mg/dL. For the same molecule, the “CREATINE PHOSPHOKINASE” value (72 h, time 3 day) was 281 u/L, the CREATININE (72 h, time 3 day) was 0.21 mg/dL and the GLUCOSE (72 h, time 3 day) was 161.33 mg/dL. For the same molecule, the “LACTATE DEHYDROGENASE” value (72 h, time 3 day) was 437.67 u/L, the LIPASE (72 h, time 3 day) was 8.67 u/L and the PHOSPHORUS (72 h, time 3 day) was 13.37 mg/dL. The POTASSIUM (72 h, time 3 day) was 6.69 MEQ/L, the SODIUM (72 h, time 3 day) was 147.13 MEQ/L and the “TOTAL BILIRUBIN” value (72 h, time 3 day) was 0.23 mg/dL. For the same molecule, the “TOTAL PROTEIN” value (72 h, time 3 day) was 6.03 G/DL, the “URIC ACID” value (72 h, time 3 day) was 2.37 mg/dL and the “ABSOLUTE BASOPHIL” value (120 h, time 5 day) was 0 CELLS/uL. For the same molecule, the “ABSOLUTE EOSINOPHIL” value (120 h, time 5 day) was 142.67 CELLS/uL, the “ABSOLUTE LYMPHOCYTE” value (120 h, time 5 day) was 11218.33 CELLS/uL and the “ABSOLUTE MONOCYTE” value (120 h, time 5 day) was 128 CELLS/uL. The “ABSOLUTE SEGMENTED NEUTROPHIL” value (120 h, time 5 day) was 1311 CELLS/uL, the BASOPHIL (120 h, time 5 day) was 0% and the EOSINOPHIL (120 h, time 5 day) was 1.33%. The “ERYTHROCYTE COUNT” value (120 h, time 5 day) was 5.9 x10E6/uL, the HEMATOCRIT (120 h, time 5 day) was 36.6% and the HEMOGLOBIN (120 h, time 5 day) was 13.67 G/DL. For the same molecule, the “LEUKOCYTE COUNT” value (120 h, time 5 day) was 12.8 x10E3/uL, the LYMPHOCYTE (120 h, time 5 day) was 87.67% and the “MEAN CORPUSCULAR HEMOGLOBIN” value (120 h, time 5 day) was 23.17 pg. The “MEAN CORPUSCULAR HEMOGLOBIN CONCENTRATION” value (120 h, time 5 day) was 37.33 G/DL, the “MEAN CORPUSCULAR VOLUME” value (120 h, time 5 day) was 62 fL and the MONOCYTE (120 h, time 5 day) was 1%. For the same molecule, the NEUTROPHIL (120 h, time 5 day) was 10%, the “NUCLEATED RED BLOOD CELLS” value (120 h, time 5 day) was 0.33 /100WBC and the “PLATELET COUNT” value (120 h, time 5 day) was 1227.67 x10E3/uL. For the same molecule, the “ALANINE AMINOTRANSFERASE” value (120 h, time 5 day) was 45.33 u/L, the ALBUMIN (120 h, time 5 day) was 4.2 G/DL and the “ALKALINE PHOSPHATASE” value (120 h, time 5 day) was 320.33 u/L. The “ASPARTATE AMINOTRANSFERASE” value (120 h, time 5 day) was 83 u/L, the “BLOOD UREA NITROGEN” value (120 h, time 5 day) was 18.67 mg/dL and the “CARBON DIOXIDE” value (120 h, time 5 day) was 26 mmol/L. For the same molecule, the CHLORIDE (120 h, time 5 day) was 106.67 MEQ/L, the CHOLESTEROL (120 h, time 5 day) was 68.33 mg/dL and the “CREATINE PHOSPHOKINASE” value (120 h, time 5 day) was 371.67 u/L. The CREATININE (120 h, time 5 day) was 0.19 mg/dL, the GLUCOSE (120 h, time 5 day) was 145 mg/dL and the “LACTATE DEHYDROGENASE” value (120 h, time 5 day) was 432 u/L. It also gave an LIPASE (120 h, time 5 day) of 9 u/L, a PHOSPHORUS (120 h, time 5 day) of 11.77 mg/dL and a POTASSIUM (120 h, time 5 day) of 5.68 MEQ/L. The SODIUM (120 h, time 5 day) was 147.3 MEQ/L, the “TOTAL BILIRUBIN” value (120 h, time 5 day) was 0.17 mg/dL and the “TOTAL PROTEIN” value (120 h, time 5 day) was 5.93 G/DL. The “URIC ACID” value (120 h, time 5 day) was 1.3 mg/dL.
